In the CheMixHub viscosity set:

Assay: xn = mol fraction of the nth substance listed

C[N+](=O)[O-] + CCC(C)=O
298.15 K, 101 kPa
Settings | viscosity [mPa·s]
x1 = 0.1563 | 0.4237
x1 = 0.2954 | 0.4466
x1 = 0.418 | 0.4694
x1 = 0.5281 | 0.4923
x1 = 0.6264 | 0.515
x1 = 0.7156 | 0.5377
x1 = 0.7963 | 0.5604
x1 = 0.8703 | 0.5834
x1 = 0.9376 | 0.6067

O=S(=O)([N-]S(=O)(=O)C(F)(F)F)C(F)(F)F.On1cc[n+](O)c1 + CCCO
100 kPa
Settings | viscosity [mPa·s]
293.15 K, x1 = 0.3992 | 31.05
293.15 K, x1 = 0.5999 | 65.75
303.15 K, x1 = 0.7996 | 77.95
313.15 K, x1 = 0.4985 | 20.85

CCCCCCCCCCCCN + c1ccccc1
303.15 K, 101 kPa
Settings | viscosity [mPa·s]
x2 = 0.2072 | 2.122
x2 = 0.4348 | 1.563
x2 = 0.5228 | 1.375
x2 = 0.6046 | 1.189
x2 = 0.7998 | 0.8357

CCCCC(CC)COP(=O)(O)OCC(CC)CCCC (configuration not stated) + CCCCCCC
viscosity [mPa·s], 101 kPa
Settings | x1 = 0.0334 | x1 = 0.0721 | x1 = 0.1175 | x1 = 0.1661 | x1 = 0.2371 | x1 = 0.3181 | x1 = 0.4202 | x1 = 0.5541 | x1 = 0.7367
303.15 K | 0.4827 | 0.6407 | 0.866 | 1.16 | 1.699 | 2.494 | 3.805 | 6.131 | 10.6
313.15 K | 0.4218 | 0.5411 | 0.7073 | 0.92 | 1.301 | 1.851 | 2.738 | 4.282 | 7.192
323.15 K | 0.3705 | 0.4589 | 0.5793 | 0.7299 | 0.9935 | 1.364 | 1.95 | 2.944 | 4.774

CCCCC(CC)COP(=O)(O)OCC(CC)CCCC (configuration not stated) + CO
303.15 K, 101 kPa
Settings | viscosity [mPa·s]
x1 = 0.0413 | 1.349
x1 = 0.0751 | 2.075
x1 = 0.1088 | 2.893
x1 = 0.1723 | 4.725
x1 = 0.2681 | 7.099
x1 = 0.3639 | 9.284
x1 = 0.4602 | 11.18
x1 = 0.6161 | 13.99
x1 = 0.7023 | 15.23
x1 = 0.8292 | 17.17
x1 = 0.928 | 18.67

CC(=O)c1ccc(C)cc1 + CN(C)c1ccccc1
viscosity [mPa·s], 101 kPa
Settings | 303.15 K | 308.15 K
x2 = 0.0481 | 1.541 | 1.493
x2 = 0.0942 | 1.512 | 1.462
x2 = 0.1558 | 1.478 | 1.428
x2 = 0.2311 | 1.442 | 1.39
x2 = 0.2972 | 1.411 | 1.359
x2 = 0.3584 | 1.382 | 1.33
x2 = 0.4254 | 1.356 | 1.303
x2 = 0.4949 | 1.331 | 1.275
x2 = 0.5492 | 1.31 | 1.252
x2 = 0.5964 | 1.295 | 1.234
x2 = 0.6887 | 1.264 | 1.204
x2 = 0.7635 | 1.24 | 1.181
x2 = 0.8596 | 1.213 | 1.149
